Data taken from ChEMBL document CHEMBL1142788, “Synthesis and antibacterial activity of alkyl derivatives of the glycopeptide antibiotic A40926 and their amides” (2005).
Values after ≈ are worked out from the molar mass of the structure shown.

Experiments:
[1] = tested on: Staphylococcus epidermidis; experiment: Minimum inhibitory concentration against methicillin-sensitive Staphylococcus epidermidis in the presence of 30% bovine serum; format: functional
Enterococcus faecalis [2] = experiment: Minimum inhibitory concentration against vancomycin-A Enterococcus faecalis in the presence of 30% bovine serum(n=4) (range = 0.5-64mg/L); format: functional
Enterococcus faecalis [3] = experiment: Minimum inhibitory concentration against vancomycin-sensitive Enterococcus faecalis in the presence of 30% bovine serum (n=3) (range = <0.125-0.25mg/l); format: functional
Enterococcus faecium [4] = experiment: Minimum inhibitory concentration against vancomycin-A Enterococcus faecium in the presence of 30% bovine serum (n=1) (range = 0.25-32mg/l); format: functional
Enterococcus faecium [5] = experiment: Minimum inhibitory concentration against vancomycin-sensitive Enterococcus faecium in the presence of 30% bovine serum(n=1); format: functional
[6] = tested on: Staphylococcus haemolyticus; experiment: Minimum inhibitory concentration against Staphylococcus haemolyticus in the presence of 30% bovine serum; format: functional
[7] = tested on: Staphylococcus epidermidis; experiment: Minimum inhibitory concentration against methicillin-resistant Staphylococcus epidermidis in the presence of 30% bovine serum; format: functional
Staphylococcus aureus [8] = experiment: Minimum inhibitory concentration against methicillin-resistant Staphylococcus aureus
Staphylococcus aureus [9] = experiment: Minimum inhibitory concentration against methicillin-sensitive Staphylococcus aureus
Enterococcus faecalis [10] = experiment: Minimum inhibitory concentration against vancomycin-sensitive Enterococcus faecalis in the presence of 30% bovine serum (n=3) (range = 0.25-0.5mg/l); format: functional
Enterococcus faecium [11] = experiment: Minimum inhibitory concentration against vancomycin-A Enterococcus faecium in the presence of 30% bovine serum (n=1) (range = 4>128mg/L); format: functional
Enterococcus faecalis [12] = experiment: Minimum inhibitory concentration against vancomycin-A Enterococcus faecalis in the presence of 30% bovine serum (n=4) (range = 1-16mg/L); format: functional
Enterococcus faecium [13] = experiment: Minimum inhibitory concentration against vancomycin-A Enterococcus faecium in the presence of 30% bovine serum (n=1) (range = 2>128mg/l); format: functional
Enterococcus faecalis [14] = experiment: Minimum inhibitory concentration against vancomycin-A Enterococcus faecalis in the presence of 30% bovine serum (n=4); format: functional
Enterococcus faecalis [15] = experiment: Minimum inhibitory concentration against vancomycin-sensitive Enterococcus faecalis in the presence of 30% bovine serum(n=3) (range = 0.25-1mg/l); format: functional
Staphylococcus aureus [16] = experiment: Minimum inhibitory concentration against methicillin-sensitive Staphylococcus aureus without serum
Enterococcus faecium [17] = experiment: Minimum inhibitory concentration against vancomycin-A Enterococcus faecium in the presence of 30% bovine serum (n=1) (range = 4-8mg/L); format: functional
Enterococcus faecalis [18] = experiment: Minimum inhibitory concentration against vancomycin-sensitive Enterococcus faecalis in the presence of 30% bovine serum (n=3); format: functional

SMILES | MIC [1] [µg/mL] | MIC (Enterococcus faecalis [2]) [µg/mL] | MIC (Enterococcus faecalis [3]) [µg/mL] | MIC (Enterococcus faecium [4]) [µg/mL] | MIC (Enterococcus faecium [5]) [µg/mL] | MIC [6] [µg/mL] | MIC [7] [µg/mL] | MIC (Staphylococcus aureus [8]) [µg/mL] | MIC (Staphylococcus aureus [9]) [µg/mL] | MIC (Enterococcus faecalis [10]) [µg/mL] | MIC (Enterococcus faecium [11]) [µg/mL] | MIC (Enterococcus faecalis [12]) [µg/mL] | MIC (Enterococcus faecium [13]) [µg/mL] | MIC (Enterococcus faecalis [14]) [µg/mL] | MIC (Enterococcus faecalis [15]) [µg/mL] | MIC (Staphylococcus aureus [16]) [µg/mL] | MIC (Enterococcus faecium [17]) [µg/mL] | MIC (Enterococcus faecalis [18]) [µg/mL]
CN(C)CCCNC(=O)C1O[C@@H](Oc2c3cc4cc2Oc2ccc(cc2Cl)[C@@H](O)C2NC(=O)[C@H](NC(=O)[C@@H]4NC(=O)[C@H]4NC(=O)[C@@H](Cc5ccc(cc5)O3)NC(=O)[C@H](N(C)Cc3ccc5ccccc5c3)c3ccc(O)c(c3)Oc3cc(O)c(Cl)c4c3)c3ccc(O)c(c3)-c3c(O[C@H]4O[C@H](CO)[C@@H](O)[C@H](O)[C@@H]4O)cc(O)cc3[C@@H](C(=O)NCCCN(C)C)NC2=O)C(NCc2ccc3ccccc3c2)[C@@H](O)C1O (some centres undefined) | < 0.125 | 64 | < 0.25 | > 32 | 0.25 | 1 | 2 | 2 (≈ 1 µM) | 1 (≈ 0.5 µM) |  |  |  |  |  |  |  |  | 
CN(Cc1ccc(-c2ccccc2)cc1)[C@H]1C(=O)N[C@@H]2Cc3ccc(cc3)Oc3cc4cc(c3O[C@@H]3OC(C(=O)O)C(O)[C@H](O)C3NCc3ccc(-c5ccccc5)cc3)Oc3ccc(cc3Cl)[C@@H](O)C3NC(=O)[C@H](NC(=O)[C@@H]4NC(=O)[C@@H](NC2=O)c2cc(cc(O)c2Cl)Oc2cc1ccc2O)c1ccc(O)c(c1)-c1c(O[C@H]2O[C@H](CO)[C@@H](O)[C@H](O)[C@@H]2O)cc(O)cc1[C@@H](C(=O)O)NC3=O (some centres undefined) | 0.5 |  |  |  | 0.5 | 64 | 4 | 0.5 (≈ 0.266 µM) | 0.5 (≈ 0.266 µM) | 0.5 | > 128 | 16 |  |  |  |  |  | 
CN(Cc1ccc(C(=O)Oc2ccccc2)cc1)[C@H]1C(=O)N[C@@H]2Cc3ccc(cc3)Oc3cc4cc(c3O[C@@H]3OC(C(=O)O)C(O)[C@H](O)C3NCc3ccc(C(=O)Oc5ccccc5)cc3)Oc3ccc(cc3Cl)[C@@H](O)C3NC(=O)[C@H](NC(=O)[C@@H]4NC(=O)[C@@H](NC2=O)c2cc(cc(O)c2Cl)Oc2cc1ccc2O)c1ccc(O)c(c1)-c1c(O[C@H]2O[C@H](CO)[C@@H](O)[C@H](O)[C@@H]2O)cc(O)cc1[C@@H](C(=O)O)NC3=O (some centres undefined) | 4 |  |  |  | 1 | 64 | 16 | 2 (≈ 1.01 µM) |  |  |  |  | > 128 | 4 | 1 | 2 (≈ 1.01 µM) |  | 
CCCCCCCCCCc1ccc(CNC2[C@H](Oc3c4cc5cc3Oc3ccc(cc3Cl)[C@@H](O)C3NC(=O)[C@H](NC(=O)[C@@H]5NC(=O)[C@H]5NC(=O)[C@@H](Cc6ccc(cc6)O4)NC(=O)[C@H](NC)c4ccc(O)c(c4)Oc4cc(O)c(Cl)c5c4)c4ccc(O)c(c4)-c4c(O[C@H]5O[C@H](CO)[C@@H](O)[C@H](O)[C@@H]5O)cc(O)cc4[C@@H](C(=O)NCCCN(C)C)NC3=O)OC(C(=O)NCCCN(C)C)C(O)[C@@H]2O)cc1 (some centres undefined) | 1 |  |  |  | 0.25 | 2 |  | 2 (≈ 1.03 µM) |  |  |  |  |  | 4 |  |  | 8 | 0.25
